Source: US11174264B2, “TYK2 inhibitors and uses thereof” (Nimbus Lakshmi, Inc., priority 2019, dated 2021)

Tests used:
[1] = system: IL-12 induced STAT4 phophorylation mediated by Tyk2/JAK2 (heterodimeric complex); experiment: IL-12 Induced pSTAT4 in Human PBMC; format: cell-based; settings: for inhibition at 0.05 µM: Homo sapiens, PBMC, 0.05 μM compound, 1.7 ng/mL IL-12, read-out: PBMC_IL-12-pSTAT4 (% Inhibition_Average_@0.05 uM) [%]; for IC50: 1.7 ng/mL IL-12, read-out: PBMC_IL-12-pSTAT4 (IC50)
Procedure: Human PBMC are isolated from buffy coat and are stored frozen for assays as needed. […] 15 μl of compound or DMSO is added to the well at the desired concentrations and incubated at 1 hr at 37° C. 15 μl of stimulus (final concentration of 1.7 ng/mL IL-12) is added for 30 minutes prior to pSTAT4 and total STAT4 analysis using cell lysates prepared and analyzed by MSD reagents as per manufacturer protocol. The final DMSO concentration of compound in the assay is 0.1%.
The IL-12 Induced pSTAT4 assay evaluates the inhibition of IL-12 induced STAT4 phophorylation mediated by Tyk2/JAK2 (heterodimeric complex).

[2] = target: JAK1 kinase domain (Homo sapiens (Human), UniProt P23458); experiment: JAK1 Radioactive Kinase Assay; format: biochemical; settings: 10 μM compound; read-out: JAK1_IC50_RB (% INH_@_10 uM) at 10.0 uM [% INH]
From the text: (§1) Similar assays were run to measure the percent inhibition at the JAK1 and JAK3 kinase domains.

[3] = target: JAK3 kinase domain (Homo sapiens (Human), UniProt P52333); experiment: JAK3 Radioactive Kinase Assay; format: biochemical; settings: 10 μM compound; read-out: JAK3_IC50_RB (% INH_@_10 uM) at 10.0 uM [% INH]
From the text: as §1

[4] = target: human TYK2 (JH2domain-pseudokinase) (Homo sapiens (Human), UniProt P29597); experiment: TYK2 JH2 Domain Binding Assay (KINOMEscan); settings: read-out: hTYK2_JH2_Binding (Kd)
Procedure: Binding constants for compounds of the present invention against the JH2 domain were determined by the following protocol for a KINOMEscan® assay (DiscoveRx). A fusion protein of a partial length construct of human TYK2 (JH2domain-pseudokinase) (amino acids G556 to D888 based on reference sequence NP_003322.3) and the DNA binding domain of NFkB was expressed in transiently transfected HEK293 cells. From these HEK 293 cells, extracts were prepared in M-PER extraction buffer (Pierce) in the presence of Protease Inhibitor Cocktail Complete (Roche) and Phosphatase Inhibitor Cocktail Set II (Merck) per manufacturers' instructions. The TYK2 (JH2domain-pseudokinase) fusion protein was labeled with a chimeric double-stranded DNA tag containing the NFkB binding site (5′-[…]-3′) fused to an amplicon for qPCR readout, which was added directly to the expression extract (the final concentration of DNA-tag in the binding reaction is 0.1 nM).
The liganded beads were blocked with excess biotin and washed with blocking buffer (SeaBlock (Pierce), 1% BSA, 0.05% Tween 20, 1 mM DTT) to remove unbound ligand and to reduce nonspecific binding.
Extracts were used directly in binding assays without any enzyme purification steps at a ≥10,000-fold overall stock dilution (final DNA-tagged enzyme concentration <0.1 nM). Extracts were loaded with DNA-tag and diluted into the binding reaction in a two step process. First extracts were diluted 1:100 in 1× binding buffer (PBS/0.05% Tween 20/10 mM DTT/0.1% BSA/2 μg/ml sonicated salmon sperm DNA) containing 10 nM DNA-tag. This dilution was allowed to equilibrate at room temperature for 15 minutes and then subsequently diluted 1:100 in 1× binding buffer. […] Kds were determined using an 11-point 3-fold compound dilution series with three DMSO control points. […] The compounds were then diluted directly into the assays such that the final concentration of DMSO was 0.9%. All reactions performed in polypropylene 384-well plates. Each was a final volume of 0.02 mL. Assays were incubated with shaking for 1 hour at room temperature. Then the beads were pelleted and washed with wash buffer (1×PBS, 0.05% Tween 20) to remove displaced kinase and test compound. […] The qPCR protocol consisted of a 10 minute hot start at 95° C., followed by 35 cycles of 95° C. for 15 seconds, 60° C. for 1 minute.
The compounds were then diluted directly into the assays such that the final concentration of DMSO was 0.9%. […] Kd measurements were performed in duplicate.
Binding constants (Kd values) were calculated with a standard dose-response curve using the Hill equation: […]
The Hill Slope was set to −1.

[5] = target: Tyk2 kinase domain (JH1) (Homo sapiens (Human), UniProt P29597); experiment: Tyk2 Radioactive Kinase Assay; format: biochemical; settings: 10 μM compound, ATP at 10 μM; read-out: TYK2_IC50_RB (% INH_@_10 uM) at 10.0 uM [% INH]
Procedure: (§2) The Tyk2 and JAK2 radioactive kinase assay measures the percent inhibition at the Tyk2 kinase domain (JH1) and the percent inhibition at the JAK2 kinase domain (JH1). Results of the assay are expressed as percent inhibition at 10 μM.

[6] = target: JAK2 kinase domain (JH1) (Homo sapiens (Human), UniProt O60674); experiment: JAK2 Radioactive Kinase Assay; format: biochemical; settings: 10 μM compound, ATP at 10 μM; read-out: JAK2_IC50_RB (% INH_@_10 uM) at 10.0 uM [% INH]
Procedure: as §2

Sequence of JAK1 kinase domain (P23458 875-1153): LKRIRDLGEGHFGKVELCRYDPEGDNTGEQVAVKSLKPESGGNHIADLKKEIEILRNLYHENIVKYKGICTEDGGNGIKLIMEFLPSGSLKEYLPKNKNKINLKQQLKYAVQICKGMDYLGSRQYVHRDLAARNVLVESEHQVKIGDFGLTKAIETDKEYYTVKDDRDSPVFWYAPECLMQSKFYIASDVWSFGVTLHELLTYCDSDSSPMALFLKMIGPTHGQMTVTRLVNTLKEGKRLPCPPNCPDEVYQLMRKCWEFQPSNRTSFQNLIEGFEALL
Sequence of human TYK2 (JH2domain-pseudokinase) (P29597 556-888): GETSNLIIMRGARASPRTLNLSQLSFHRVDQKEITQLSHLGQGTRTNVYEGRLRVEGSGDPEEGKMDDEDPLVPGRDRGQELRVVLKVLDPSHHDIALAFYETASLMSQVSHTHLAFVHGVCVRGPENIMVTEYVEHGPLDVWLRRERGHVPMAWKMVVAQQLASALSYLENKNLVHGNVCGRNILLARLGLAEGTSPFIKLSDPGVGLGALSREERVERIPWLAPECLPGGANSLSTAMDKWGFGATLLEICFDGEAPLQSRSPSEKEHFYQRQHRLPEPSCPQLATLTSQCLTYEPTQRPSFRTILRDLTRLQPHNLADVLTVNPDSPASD
Sequence of Tyk2 kinase domain (JH1) (P29597 897-1176): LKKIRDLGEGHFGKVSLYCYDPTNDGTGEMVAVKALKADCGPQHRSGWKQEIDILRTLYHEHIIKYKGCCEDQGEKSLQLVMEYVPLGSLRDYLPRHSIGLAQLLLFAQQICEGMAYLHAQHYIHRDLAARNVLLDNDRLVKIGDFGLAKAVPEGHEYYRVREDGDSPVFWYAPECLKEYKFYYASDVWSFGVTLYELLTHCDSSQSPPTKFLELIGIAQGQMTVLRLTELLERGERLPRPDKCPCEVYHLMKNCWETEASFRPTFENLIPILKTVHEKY
Sequence of JAK2 kinase domain (JH1) (O60674 849-1124): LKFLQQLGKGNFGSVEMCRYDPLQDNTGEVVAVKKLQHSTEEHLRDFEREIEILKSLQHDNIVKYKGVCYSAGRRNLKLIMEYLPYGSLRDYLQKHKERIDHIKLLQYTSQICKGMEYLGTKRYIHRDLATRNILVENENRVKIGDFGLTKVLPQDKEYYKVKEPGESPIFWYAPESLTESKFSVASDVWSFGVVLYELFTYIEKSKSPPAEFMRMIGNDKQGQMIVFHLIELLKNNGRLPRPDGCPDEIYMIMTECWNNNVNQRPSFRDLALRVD
Sequence of JAK3 kinase domain (P52333 822-1111): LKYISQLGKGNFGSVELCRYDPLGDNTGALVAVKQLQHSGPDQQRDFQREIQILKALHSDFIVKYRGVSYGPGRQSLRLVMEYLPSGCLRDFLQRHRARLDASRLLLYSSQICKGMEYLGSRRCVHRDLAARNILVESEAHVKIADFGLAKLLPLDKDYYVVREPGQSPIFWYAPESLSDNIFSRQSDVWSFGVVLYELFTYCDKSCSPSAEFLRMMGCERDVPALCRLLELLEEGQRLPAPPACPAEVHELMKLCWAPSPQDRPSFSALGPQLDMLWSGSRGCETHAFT

| Compound | inhibition at 10 µM [2] | inhibition at 10 µM [3] | Kd [4] | inhibition at 10 µM [5] | inhibition at 10 µM [6] | IC50 [1] | inhibition at 0.05 µM [1] |
| --- | --- | --- | --- | --- | --- | --- | --- |
| CNc1cc(Nc2cccn(-c3ccccn3)c2=O)nn2c(C(=O)NC3CC3)cnc12 [Compound I-4, N-cyclopropyl-8-(methylamino)-6-((2-oxo-2H-[1,2′-bipyridin]-3-yl)amino)imidazo[1,2-b]pyridazine-3-carboxamide] | < 50% | < 50% | < 0.2 nM | < 50% | < 50% | – | < 50% |
| CNc1cc(-c2cn(CCN3CCOCC3)c3ncccc23)nn2c(C(=O)N[C@H]3CC[C@H]3O)cnc12 [Compound I-12, N-((1S,2R)-2-hydroxycyclobutyl)-8-(methylamino)-6-(1-(2-morpholinoethyl)-1H-pyrrolo[2,3-b]pyridin-3-yl)imidazo[1,2-b]pyridazine-3-carboxamide] | < 50% | < 50% | < 0.2 nM | < 50% | < 50% | – | < 50% |

Further lines, with some results ahead:

| inhibition at 10 µM [2] | inhibition at 10 µM [3] | Kd [4] | inhibition at 10 µM [5] | inhibition at 10 µM [6] | IC50 [1] | Compound | inhibition at 0.05 µM [1] |
| --- | --- | --- | --- | --- | --- | --- | --- |
| < 50% | < 50% | < 0.2 nM | < 50% | < 50% | < 100 nM | CNc1cc(-c2cn(C(C)C)c3ncccc23)nn2c(C(=O)N[C@@H]3C[C@@H]3F)cnc12 [Compound I-5, N-((1R,2S)-2-fluorocyclopropyl)-6-(1-isopropyl-1H-pyrrolo[2,3-b]pyridin-3-yl)-8-(methylamino)imidazo[1,2-b]pyridazine-3-carboxamide] | 70 to 90% |
| < 50% | < 50% | < 0.2 nM | < 50% | < 50% | < 100 nM | CNc1cc(-c2cn(CCN3CCOCC3)c3ncccc23)nn2c(C(=O)N[C@@H]3C[C@@H]3F)cnc12 [Compound I-6, N-((1R,2S)-2-fluorocyclopropyl)-8-(methylamino)-6-(1-(2-morpholinoethyl)-1H-pyrrolo[2,3-b]pyridin-3-yl)imidazo[1,2-b]pyridazine-3-carboxamide] | < 50% |
| < 50% | < 50% | < 0.2 nM | < 50% | < 50% | < 100 nM | CNc1cc(-c2cn(C(C)C)c3ncccc23)nn2c(C(=O)N[C@H]3CC[C@H]3O)cnc12 [Compound I-10, N-((1S,2R)-2-hydroxycyclobutyl)-6-(1-isopropyl-1H-pyrrolo[2,3-b]pyridin-3-yl)-8-(methylamino)imidazo[1,2-b]pyridazine-3-carboxamide] | 70 to 90% |
